Source: patent US20250270190A1, “KIT INHIBITORS” (BLUEPRINT MEDICINES CORPORATION, priority 2022, published 2025)
Counter-ions that a name gives are not always drawn.

These molecules were tested against T1, c-kit autophosphorylation (Phospho c-Kit Tyr721) in HMC 1.1 (exon 11/13) cells, V654A (Homo sapiens, UniProt P10721, V560G/V654A) (assay: pKIT Meso Scale Discovery (MSD) assay, inhibition of autophosphorylation of KIT, HMC1.1_V654A). Settings: Table 1, cell line not named for Table 1, b1056 names pKIT HMC1.1_V654A, read-out: Code (IC50 for inhibition of autophosphorylation of KIT, pKIT MSD assay).
T1 construct: endogenous in cells; host or cells: HMC 1.1 (exon 11/13) cells
T1 sequence (P10721 26-976 V560G/V654A): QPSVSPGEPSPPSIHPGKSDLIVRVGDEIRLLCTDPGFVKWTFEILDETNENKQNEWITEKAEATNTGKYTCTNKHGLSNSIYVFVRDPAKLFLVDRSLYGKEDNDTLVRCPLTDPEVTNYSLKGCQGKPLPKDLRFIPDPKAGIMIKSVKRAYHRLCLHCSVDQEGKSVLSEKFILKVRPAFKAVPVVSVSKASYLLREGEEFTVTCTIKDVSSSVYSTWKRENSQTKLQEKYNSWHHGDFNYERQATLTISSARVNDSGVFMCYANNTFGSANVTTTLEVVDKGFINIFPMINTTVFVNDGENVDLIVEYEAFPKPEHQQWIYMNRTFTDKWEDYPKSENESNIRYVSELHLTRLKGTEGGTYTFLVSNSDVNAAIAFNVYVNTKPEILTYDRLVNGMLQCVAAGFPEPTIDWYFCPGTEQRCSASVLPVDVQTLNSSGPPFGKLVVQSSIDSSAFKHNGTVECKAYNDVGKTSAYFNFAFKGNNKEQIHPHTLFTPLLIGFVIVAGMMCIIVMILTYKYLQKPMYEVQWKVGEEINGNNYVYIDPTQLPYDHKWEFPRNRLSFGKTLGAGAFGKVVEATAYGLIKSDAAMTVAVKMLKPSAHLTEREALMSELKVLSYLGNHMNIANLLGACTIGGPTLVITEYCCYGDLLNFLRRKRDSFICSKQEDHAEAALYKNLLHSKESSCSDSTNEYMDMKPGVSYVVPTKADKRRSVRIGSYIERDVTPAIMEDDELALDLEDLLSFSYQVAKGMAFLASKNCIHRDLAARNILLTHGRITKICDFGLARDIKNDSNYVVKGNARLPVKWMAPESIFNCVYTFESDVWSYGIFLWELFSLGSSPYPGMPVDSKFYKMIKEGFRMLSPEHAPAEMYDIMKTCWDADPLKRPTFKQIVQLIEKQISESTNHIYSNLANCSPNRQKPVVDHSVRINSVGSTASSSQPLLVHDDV
Format: cell-based
Method in brief: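 HMC1.1 cells were serum-starved for 4 h in serum-free, iron-free, phenol red-free IMDM, then treated with compound in dose-response for 90 min at 37 °C. Staurosporine and DMSO served as controls. Lysates were analysed by MSD electrochemiluminescence immunoassay for phospho-c-Kit Tyr721, and % inhibition of autophosphorylation was derived.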

`CC(C)Nc1cc(Nc2cc(N)nc(C(F)F)n2)ncc1C(=O)NCc1cocn1` [Compound 147, 6-((6-amino-2-(difluoromethyl)pyrimidin-4-yl)amino)-4-(isopropylamino)-N-(oxazol-4-ylmethyl)nicotinamide] and `C[C@@H](CF)Nc1cc(Nc2cc(N)nc(C(F)F)n2)ncc1C(=O)NCc1cocn1` [Compound 176, (S)-6-((6-amino-2-(difluoromethyl)pyrimidin-4-yl)amino)-4-((1-fluoropropan-2-yl)amino)-N-(oxazol-4-ylmethyl)nicotinamide] cannot be ordered by IC50: under 10 nM for the first, under 10 nM for the second.

`CC(C)Nc1cc(Nc2cc(N)nc(C(F)F)n2)ncc1C(=O)NCc1ncco1` [Compound 148, 6-((6-amino-2-(difluoromethyl)pyrimidin-4-yl)amino)-4-(isopropylamino)-N-(oxazol-2-ylmethyl)nicotinamide] and `CC(C)Nc1cc(Nc2cc(N)nc(C(F)F)n2)ncc1C(=O)NCc1ccccn1` [Compound 158, 6-((6-amino-2-(difluoromethyl)pyrimidin-4-yl)amino)-4-(isopropylamino)-N-(pyridin-2-ylmethyl)nicotinamide] cannot be ordered by IC50: under 10 nM for the first, under 10 nM for the second.

Going from `CCNc1cc(Nc2cc(N)nc(C(F)F)n2)ncc1C(=O)NC1CC2(CNC2)C1` [Compound 149, 6-((6-amino-2-(difluoromethyl)pyrimidin-4-yl)amino)-4-(ethylamino)-N-(2-azaspiro[3.3]heptan-6-yl)nicotinamide] to `CCNc1cc(Nc2cc(N)nc(C(F)F)n2)ncc1C(=O)NC12CC(CO)(C1)C2` [Compound 151, 6-((6-amino-2-(difluoromethyl)pyrimidin-4-yl)amino)-4-(ethylamino)-N-(3-(hydroxymethyl)bicyclo[1.1.1]pentan-1-yl)nicotinamide], the IC50 falls from over 40 nM to under 10 nM. The second is the more potent here.

`COc1cc(Nc2cc(N)nc(C(F)F)n2)ncc1-c1cnn(CC(C)N(C)C)c1` (stereo not shown) [Compound 150, 2-(difluoromethyl)-N4-(5-(1-(2-(dimethylamino)propyl)-1H-pyrazol-4-yl)-4-methoxypyridin-2-yl)pyrimidine-4,6-diamine] and `CC(O)Cn1cc(-c2cnc(Nc3cc(N)nc(C(F)F)n3)cc2OC(F)F)cn1` (stereo not shown) [Compound 155, 1-(4-(6-((6-amino-2-(difluoromethyl)pyrimidin-4-yl)amino)-4-(difluoromethoxy)pyridin-3-yl)-1H-pyrazol-1-yl)propan-2-ol] cannot be ordered by IC50: under 10 nM for the first, under 10 nM for the second.

`CCOc1cc(Nc2cc(N)nc(C(F)F)n2)ncc1-c1cnn(CC(C)(C)O)c1` [Compound 152, 1-(4-(6-((6-amino-2-(difluoromethyl)pyrimidin-4-yl)amino)-4-ethoxypyridin-3-yl)-1H-pyrazol-1-yl)-2-methylpropan-2-ol] and `CC(C)(O)Cn1cc(-c2cnc(Nc3cc(N)nc(C(F)F)n3)cc2OC2CC2)cn1` [Compound 173, 1-(4-(6-((6-amino-2-(difluoromethyl)pyrimidin-4-yl)amino)-4-cyclopropoxypyridin-3-yl)-1H-pyrazol-1-yl)-2-methylpropan-2-ol] cannot be ordered by IC50: under 10 nM for the first, under 10 nM for the second.

`Nc1cc(Nc2cc(NC3CC3)c(C(=O)NCc3ccccn3)cn2)nc(C(F)F)n1` [Compound 153, 6-((6-amino-2-(difluoromethyl)pyrimidin-4-yl)amino)-4-(cyclopropylamino)-N-(pyridin-2-ylmethyl)nicotinamide] and `C[C@@H](CF)Nc1cc(Nc2cc(N)nc(C(F)F)n2)ncc1C(=O)NCc1ccccn1` [Compound 186, (S)-6-((6-amino-2-(difluoromethyl)pyrimidin-4-yl)amino)-4-((1-fluoropropan-2-yl)amino)-N-(pyridin-2-ylmethyl)nicotinamide] cannot be ordered by IC50: under 10 nM for the first, under 10 nM for the second.

`Nc1cc(Nc2cc(OC(F)(F)F)c(-c3cnn(C4CC4)c3)cn2)nc(C(F)F)n1` [Compound 154, N4-(5-(1-cyclopropyl-1H-pyrazol-4-yl)-4-(trifluoromethoxy)pyridin-2-yl)-2-(difluoromethyl)pyrimidine-4,6-diamine] and `C[C@@H](Oc1cc(Nc2cc(N)nc(C(F)F)n2)ncc1-c1cnn(C)c1)C(F)(F)F` [Compound 163, (R)-2-(difluoromethyl)-N4-(5-(1-methyl-1H-pyrazol-4-yl)-4-((1,1,1-trifluoropropan-2-yl)oxy)pyridin-2-yl)pyrimidine-4,6-diamine] cannot be ordered by IC50: under 10 nM for the first, under 10 nM for the second.

`Nc1cc(Nc2cc(OC3CC3)c(-c3cnn(CC4CCO4)c3)cn2)nc(C(F)F)n1` (stereo not shown) [Compound 166, N4-(4-cyclopropoxy-5-(1-(oxetan-2-ylmethyl)-1H-pyrazol-4-yl)pyridin-2-yl)-2-(difluoromethyl)pyrimidine-4,6-diamine] and `CC(C)(N)Cn1cc(-c2cnc(Nc3cc(N)nc(C(F)F)n3)cc2OC2CC2)cn1` [Compound 169, N4-(5-(1-(2-amino-2-methylpropyl)-1H-pyrazol-4-yl)-4-cyclopropoxypyridin-2-yl)-2-(difluoromethyl)pyrimidine-4,6-diamine] cannot be ordered by IC50: under 10 nM for the first, under 10 nM for the second.

`Nc1cc(Nc2cc(OC3COC3)c(-c3cnn(C4CNC4)c3)cn2)nc(C(F)F)n1` [Compound 168, N4-(5-(1-(azetidin-3-yl)-1H-pyrazol-4-yl)-4-(oxetan-3-yloxy)pyridin-2-yl)-2-(difluoromethyl)pyrimidine-4,6-diamine formate] and `CN1CC(n2cc(-c3cnc(Nc4cc(N)nc(C(F)F)n4)cc3OC3COC3)cn2)C1` [Compound 183, 2-(difluoromethyl)-N4-(5-(1-(1-methylazetidin-3-yl)-1H-pyrazol-4-yl)-4-(oxetan-3-yloxy)pyridin-2-yl)pyrimidine-4,6-diamine] cannot be ordered by IC50: over 40 nM for the first, over 40 nM for the second.

`CNC(C)Cn1cc(-c2cnc(Nc3cc(N)nc(C(F)F)n3)cc2OC2CC2)cn1` (stereo not shown) [Compound 170, N4-(4-cyclopropoxy-5-(1-(2-(methylamino)propyl)-1H-pyrazol-4-yl)pyridin-2-yl)-2-(difluoromethyl)pyrimidine-4,6-diamine] and `CNC(C)Cn1cc(-c2cnc(Nc3cc(N)nc(C(F)F)n3)cc2OC(F)F)cn1` (stereo not shown) [Compound 180, N4-(4-(difluoromethoxy)-5-(1-(2-(methylamino)propyl)-1H-pyrazol-4-yl)pyridin-2-yl)-2-(difluoromethyl)pyrimidine-4,6-diamine] cannot be ordered by IC50: under 10 nM for the first, under 10 nM for the second.

`CN(C)CCn1cc(-c2cnc(Nc3cc(N)nc(C(F)F)n3)cc2OC2CC2)cn1` [Compound 171, N4-(4-cyclopropoxy-5-(1-(2-(dimethylamino)ethyl)-1H-pyrazol-4-yl)pyridin-2-yl)-2-(difluoromethyl)pyrimidine-4,6-diamine] and `CC(C)(O)CCn1cc(-c2cnc(Nc3cc(N)nc(C(F)F)n3)cc2OC2CC2)cn1` [Compound 185, 4-(4-(6-((6-amino-2-(difluoromethyl)pyrimidin-4-yl)amino)-4-cyclopropoxypyridin-3-yl)-1H-pyrazol-1-yl)-2-methylbutan-2-ol] cannot be ordered by IC50: under 10 nM for the first, under 10 nM for the second.

First: Cn1cc(-c2cnc(Nc3cc(N)nc(C(F)F)n3)cc2OCC2CCCCO2)cn1 (stereo not shown) [Compound 172, 2-(difluoromethyl)-N4-(5-(1-methyl-1H-pyrazol-4-yl)-4-((tetrahydro-2H-pyran-2-yl)methoxy)pyridin-2-yl)pyrimidine-4,6-diamine]
Second: Nc1cc(Nc2cc(OC3CC3)c(-c3cnn(CCN4CCC4)c3)cn2)nc(C(F)F)n1 [Compound 182, N4-(5-(1-(2-(azetidin-1-yl)ethyl)-1H-pyrazol-4-yl)-4-cyclopropoxypyridin-2-yl)-2-(difluoromethyl)pyrimidine-4,6-diamine]
The IC50 of the first is higher: 10 to 40 nM for the first, under 10 nM for the second.

Compared with `Nc1cc(Nc2cc(NC3CC3)c(C(=O)NC34CC(CO)(C3)C4)cn2)nc(C(F)F)n1` [Compound 174, 6-((6-amino-2-(difluoromethyl)pyrimidin-4-yl)amino)-4-(cyclopropylamino)-N-(3-(hydroxymethyl)bicyclo[1.1.1]pentan-1-yl)nicotinamide], `C[C@H](CF)Nc1cc(Nc2cc(N)nc(C(F)F)n2)ncc1C(=O)NCc1cocn1` [Compound 177, (R)-6-((6-amino-2-(difluoromethyl)pyrimidin-4-yl)amino)-4-((1-fluoropropan-2-yl)amino)-N-(oxazol-4-ylmethyl)nicotinamide] is higher in IC50: under 10 nM for the first, 10 to 40 nM for the second. The first is the more potent here.

Going from `CNCCn1cc(-c2cnc(Nc3cc(N)nc(C(F)F)n3)cc2OC2COC2)cn1` [Compound 175, 2-(difluoromethyl)-N4-(5-(1-(2-(methylamino)ethyl)-1H-pyrazol-4-yl)-4-(oxetan-3-yloxy)pyridin-2-yl)pyrimidine-4,6-diamine] to `CNC(C)(C)Cn1cc(-c2cnc(Nc3cc(N)nc(C(F)F)n3)cc2OC2CC2)cn1` [Compound 184, N4-(4-cyclopropoxy-5-(1-(2-methyl-2-(methylamino)propyl)-1H-pyrazol-4-yl)pyridin-2-yl)-2-(difluoromethyl)pyrimidine-4,6-diamine], the IC50 falls from over 40 nM to under 10 nM. The second is the more potent here.

`Cn1cc(-c2cnc(Nc3cc(N)nc(C(F)F)n3)cc2OCc2cccc(N)c2)cn1` [Compound 178, N4-(4-((3-aminobenzyl)oxy)-5-(1-methyl-1H-pyrazol-4-yl)pyridin-2-yl)-2-(difluoromethyl)pyrimidine-4,6-diamine] and `CN(C)CCn1cc(-c2cnc(Nc3cc(N)nc(C(F)F)n3)cc2OC(F)F)cn1` [Compound 179, N4-(4-(difluoromethoxy)-5-(1-(2-(dimethylamino)ethyl)-1H-pyrazol-4-yl)pyridin-2-yl)-2-(difluoromethyl)pyrimidine-4,6-diamine] cannot be ordered by IC50: under 10 nM for the first, under 10 nM for the second.

`CC(C)(O)Cn1cc(-c2cnc(Nc3cc(N)nc(C(F)F)n3)cc2OC(F)F)cn1` [Compound 181, 1-(4-(6-((6-amino-2-(difluoromethyl)pyrimidin-4-yl)amino)-4-(difluoromethoxy)pyridin-3-yl)-1H-pyrazol-1-yl)-2-methylpropan-2-ol] showed an IC50 of under 10 nM.
